Results on eight compounds are retold here after patent EP3412661A1, “COCRYSTALS OF VORTIOXETINE HYDROBROMIDE AND RESORCINOL” (Enantia, S.L., priority 2017, dated 2018).

Values after ≈ are worked out from the molar mass of the structure shown. Where a name gives a salt, the structure may show the parent alone.

The conditions of series [1]: according to WO2007/144005A1 / US9562024B2; hydrobromide; cited from earlier work.
For series [2] the following is noted: cited from earlier work.
For series [3] the following is noted: cited from earlier work. The source holds these as a separate data set.
The nature of series [4]: Stability test under accelerated stability conditions (ICH), crystalline phase checked by XRPD. The settings on record: 40 °C / 75±5% RH. It is filed as physicochemical. How it is done: The samples were analyzed by XRPD to observe if the crystalline phase was stable (see Table 2).
Series [5] is described as follows: Comparative kinetic solubility study in water at room temperature (HPLC vortioxetine peak area, pH and XRPD of filtered solid). The note with it: for Analysis 1 XRPD / Analysis 2 XRPD / Analysis 1 pH / Analysis 2 pH: Form β study; for Analysis 1 XRPD / Analysis 2 XRPD: filtered solid; for Analysis 1 pH / Analysis 2 pH: mother liquor. On the procedure:
A comparative kinetic solubility study of the cocrystal of vortioxetine·HBr and resorcinol 2:1 Form I and with vortioxetine·HBr Form β was performed in water at room temperature (RT). The relative solubility of vortioxetine was obtained by comparison of the vortioxetine peak area in the HPLC analyses of the mother liquors.
The solubility tests were performed in a minireactor HME-R, provided with a 250 mL vessel, a temperature sensor and mechanical stirring.
1 g of each material was stirred in water (150 ml, […]) at 350 rpm. Aliquots of ca. 5 ml of suspension were filtered in a sintered glass funnel (#4) at different times: 30, 60, 180 min and 24 h. After filtration, the pH of the mother liquor was determined. 1 mL of mother liquor was measured with a pipette and diluted to 10 mL with water in a volumetric flask. A portion of this solution was filtered again through a 0.20 µm nylon filter and directly analyzed by HPLC (2 injections for each sample). The filtered solids were analyzed by XRPD, without a drying step, to determine the crystalline phase corresponding to the measured solubility.
The HPLC conditions were the following:
The kinetic solubility of cocrystal vortioxetine hydrobromide and resorcinol Form I and vortioxetine·HBr Form β at room temperature in water was determined in duplicate.

For series [6] the following is noted: compared with vortioxetine hydrobromide Form β (example 140 of US9562024B2); cited from earlier work.
[7] abbreviates: water, room temperature, 30 min.
[8] abbreviates: water, room temperature, 60 min.
[9] abbreviates: water, room temperature, 180 min.

Turning to `Cc1ccc(Sc2ccccc2N2CCNCC2)c(C)c1` [ethyl acetate solvate of vortioxetine hydrobromide], the stability entry in series [1] is on record as “unstable”.

As for `Cc1ccc(Sc2ccccc2N2CCNCC2)c(C)c1` [Form α of vortioxetine hydrobromide, vortioxetine hydrobromide], in series [2] (Examples 4b and 4d of WO2007/144005A1, listed as vortioxetine hydrobromide Form α, hydrobromide), the solubilities in water was 2 mg/mL. Moreover, the stability entry in series [1] is “unstable and is transformed to the Form β of vortioxetine hydrobromide at room temperature”.

In the case of `Cc1ccc(Sc2ccccc2N2CCNCC2)c(C)c1` [Form γ of vortioxetine hydrobromide, vortioxetine hydrobromide], the stability entry in series [1] is “very unstable”. Further, in series [3] (under low-humidity conditions), the hygroscopicity is 2.0%.

On to `Cc1ccc(Sc2ccccc2N2CCNCC2)c(C)c1` [Vortioxetine·HBr Form β, vortioxetine hydrobromide], for which the XRPD result in series [4] (7 days) is given as “stable”; in series [4] (14 days) it was “stable”; in series [4] (21 days) it was “stable”; in series [4] (28 days, hydrobromide), “stable”; in series [4] (28 days, listed as Vortioxetine•HBr Form β, hydrobromide), “remained stable”. Moreover, the “maximum of solubility afforded after” value in series [5] is “three hours”. The “spring and parachute effect” value in series [5] is reported as “not seen”. The “Analysis 1 Average Form β (Vortioxetine area)” value in series [5] (30 min) was 564; in series [5] (60 min), 550; in series [5] (180 min), 579; in series [5] (24 h) it was 572. The “Analysis 2 Average Form β (Vortioxetine area)” value in series [5] (30 min) amounted to 427; in series [5] (60 min), 537; in series [5] (180 min) it was 561; in series [5] (24 h) it was 581. For the same compound, the “Average Vortioxetine area” value in series [5] (30 min) was found to be 495; in series [5] (60 min), 544; in series [5] (180 min), 570; in series [5] (24 h), 576. Moreover, the “Analysis 1 XRPD” value in series [5] (setting [7]) is listed as “Form β”; in series [5] (setting [8]), “Form β”; in series [5] (setting [9]), “Form β”; in series [5] (water, room temperature, 24 h), “Form β”. Further, the “Analysis 2 XRPD” value in series [5] (setting [7]) is “Form β”; in series [5] (setting [8]) it was “Form β”; in series [5] (setting [9]), “Form β”; in series [5] (water, room temperature, 24 h) it was “Form β”. Moreover, the “Analysis 1 pH” value in series [5] (setting [7]) was found to be 4.9; in series [5] (setting [8]), 4.8; in series [5] (setting [9]), 4.8; in series [5] (water, room temperature, 24 h), 5.6. The “Analysis 2 pH” value in series [5] (setting [7]) is listed as 5.3; in series [5] (setting [8]), 5.1; in series [5] (setting [9]), 5.1; in series [5] (water, room temperature, 24 h) it was 5.5. Besides, the “crystalline form after 24 hours in water dispersion” value in series [5] (water, room temperature, 24 hours, XRPD) is “unchanged”. Moreover, the pH in series [5] (water, room temperature, remaining constant over the study) is reported as 4-5.

For `Br.Br.Cc1ccc(Sc2ccccc2N2CCNCC2)c(C)c1.Cc1ccc(Sc2ccccc2N2CCNCC2)c(C)c1.Oc1cccc(O)c1` [cocrystal Form I, cocrystal of vortioxetine hydrobromide and resorcinol], the XRPD entry in series [4] (7 days) was “stable”; in series [4] (14 days), “stable”; in series [4] (21 days) it was “stable”; in series [4] (28 days) it was “stable”; in series [4] (28 days, listed as cocrystal of vortioxetine hydrobromide and resorcinol Form I), “remained stable”; in series [4] (28 days, listed as cocrystal of vortioxetine·HBr and resorcinol Form I), “remained stable”.

Turning to `Cc1ccc(Sc2ccccc2N2CCNCC2)c(C)c1` [hemihydrate of vortioxetine hydrobromide, vortioxetine hydrobromide], in series [1], the stability entry is on record as “unstable”. Moreover, in series [3] (according to WO2007/144005A1 / US9562024B2), the “hygroscopicity (in words)” value was “hygroscopic”.

As to `Cc1ccc(Sc2ccccc2N2CCNCC2)c(C)c1` [vortioxetine hemihydrobromide], the kinetic solubility entry in series [6] is on record as “much lower”.

As to `Cc1ccc(Sc2ccccc2N2CCNCC2)c(C)c1` [Vortioxetine, 1-[2-(2,4-dimethyl-phenylsulfanyl)-phenyl]piperazine], in series [2] (25 °C), the solubility in water was 7.8 µg/mL (≈ 26.1 µM).
